In patent US9593155B2, “Oxyntomodulin analogs” (priority 2009, dated 2017):
*1 amine or outer side, *2 acyl side, *3 side chain or, on linkers, in order; H or OH if unused. Where a SMILES comes first, the peptide text is derived from it. Bridges are numbered along the chain shown (N, C = ends). Side-chain parts run from the residue outwards. [ ]: non-standard residue; d: D form. The star is where a group is joined. C10 = S-[42-(cholest-5-en-3-yloxy)-2,42-dioxo-6,9,12,15,18,21,24,27,30,33,36,39-dodecaoxa-3-azadotetracont-1-yl]-L-cysteine, Cys(oxa12-cholesterol), CC(C)CCC[C@@H](C)[C@H]1CC[C@H]2[C@@H]3CC=C4C[C@@H](OC(=O)CCOCCOCCOCCOCCOCCOCCOCCOCCOCCOCCOCCOCCNC(=O)CSC[C@H](N[*:1])C(=O)[*:2])CC[C@]4(C)[C@H]3CC[C@]12C; X1 = CC(C)CCCC(C)[C@H]1CCC2C3CC=C4C[C@@H](OC(=O)CCOCCOCCOCCOCCOCCOCCOCCOCCOCCOCCOCCOCCNC(=O)C*)CC[C@]4(C)C3CC[C@@]21C; γGlu = O=C(O)[C@H](CCC(=O)[*:2])N[*:1]; Palmitoyl = CCCCCCCCCCCCCCCC(=O)*; Ac4c = NC1(C(=O)O)CCC1; Aib = CC(C)(N)C(=O)O

assay: pI of the peptide analogs; details: not given

Row | Molecule | pI
1 | CSCC[C@H](NC(=O)[C@H](CC(C)C)NC(=O)[C@H](Cc1c[nH]c2ccccc12)NC(=O)[C@H](CCC(N)=O)NC(=O)[C@@H](NC(=O)[C@H](Cc1ccccc1)NC(=O)[C@H](CC(=O)O)NC(=O)[C@@H]1CCCCNC(=O)CC[C@H](NC(=O)[C@H](CC(=O)O)NC(=O)[C@H](CC(C)C)NC(=O)[C@H](Cc2ccc(O)cc2)NC(=O)[C@H](CCCCN)NC(=O)[C@H](CO)NC(=O)[C@H](Cc2ccc(O)cc2)NC(=O)[C@H](CC(=O)O)NC(=O)[C@H](CO)NC(=O)[C@@H](NC(=O)[C@H](Cc2ccccc2)NC(=O)[C@@H](NC(=O)CNC(=O)[C@H](CCC(N)=O)NC(=O)[C@@H](CO)NC(=O)[C@@H](N)Cc2c[nH]cn2)[C@@H](C)O)[C@@H](C)O)C(=O)N[C@@H](CCCNC(=N)N)C(=O)N[C@@H](CCCNC(=N)N)C(=O)N[C@@H](C)C(=O)N1)C(C)C)C(=O)N[C@@H](CC(N)=O)C(=O)N[C@H](C(=O)N[C@@H](CCCCN)C(=O)N[C@@H](CCC(=O)N[C@@H](CCC(=O)N[C@@H](CSCC(=O)NCCOCCOCCOCCOCCOCCOCCOCCOCCOCCOCCOCCOCCC(=O)O[C@H]1CC[C@@]2(C)C(=CCC3C2CC[C@@]2(C)C3CC[C@@H]2C(C)CCCC(C)C)C1)C(=O)O)C(=O)O)C(=O)O)[C@@H](C)O (stereo partly drawn) [OXM392] (H-H[dS]QGTFTSDYSKYLDERRAKDFVQWLMNTK[γGlu][γGlu]C(X1)-OH; lactam 16-20) | about 5.4
2 | HsQGTFTSDYSSYLDSRRAQDFVQWLMNTK-γE-C4-COOH [OXM355] | about 5
3 | H-Acb-QGTFTSDYSKYLDERRAKDFVQWLMNTK-γE-γE-C10-COOH (lactam bridge between E and K) (H-H[Ac4c]QGTFTSDYSKYLDERRAKDFVQWLMNTK[γGlu][γGlu][C10]-OH; lactam 16-20) [OXM398] | about 5.4

same assay, conditions: Table 10

Row | pI | Molecule
4 | 5.5 | CCCCCCCCCCCCCCCC(=O)N[C@@H](CCC(=O)N[C@@H](CCC(=O)NCCCC[C@H](NC(=O)[C@H](CC(=O)O)NC(=O)[C@H](CO)NC(=O)[C@@H](NC(=O)[C@H](Cc1ccccc1)NC(=O)[C@@H](NC(=O)CNC(=O)[C@H](CCC(N)=O)NC(=O)C(C)(C)NC(=O)[C@@H](N)Cc1c[nH]cn1)[C@@H](C)O)[C@@H](C)O)C(=O)N[C@@H](CO)C(=O)N[C@@H](CCCCN)C(=O)N[C@@H](Cc1ccc(O)cc1)C(=O)N[C@@H](CC(C)C)C(=O)N[C@@H](CC(=O)O)C(=O)N[C@@H](CCC(=O)O)C(=O)N[C@@H](CCCNC(=N)N)C(=O)N[C@@H](CCCNC(=N)N)C(=O)N[C@@H](C)C(=O)N[C@@H](CCC(N)=O)C(=O)N[C@@H](CC(=O)O)C(=O)N[C@@H](Cc1ccccc1)C(=O)N[C@H](C(=O)N[C@@H](CCC(N)=O)C(=O)N[C@@H](Cc1c[nH]c2ccccc12)C(=O)N[C@@H](CC(C)C)C(=O)N[C@@H](CCSC)C(=O)N[C@@H](CC(N)=O)C(=O)N[C@H](C(=O)N[C@@H](CCCCN)C(N)=O)[C@@H](C)O)C(C)C)C(=O)O)C(=O)O [OXM416] (H-H[Aib]QGTFTSDK([γGlu-γGlu-Palmitoyl])SKYLDERRAQDFVQWLMNTK-NH2)
5 | 5.4 | CCCCCCCCCCCCCCCC(=O)N[C@@H](CCC(=O)NCCCC[C@H](NC(=O)[C@H](CC(=O)O)NC(=O)[C@H](CO)NC(=O)[C@@H](NC(=O)[C@H](Cc1ccccc1)NC(=O)[C@@H](NC(=O)CNC(=O)[C@H](CCC(N)=O)NC(=O)[C@@H](CO)NC(=O)[C@@H](N)Cc1c[nH]cn1)[C@@H](C)O)[C@@H](C)O)C(=O)N[C@@H](CO)C(=O)N[C@@H](CCCCN)C(=O)N[C@@H](Cc1ccc(O)cc1)C(=O)N[C@@H](CC(C)C)C(=O)N[C@@H](CC(=O)O)C(=O)N[C@@H](CCC(=O)O)C(=O)N[C@@H](CCCNC(=N)N)C(=O)N[C@@H](CCCNC(=N)N)C(=O)N[C@@H](C)C(=O)N[C@@H](CCC(N)=O)C(=O)N[C@@H](CC(=O)O)C(=O)N[C@@H](Cc1ccccc1)C(=O)N[C@H](C(=O)N[C@@H](CCC(N)=O)C(=O)N[C@@H](Cc1c[nH]c2ccccc12)C(=O)N[C@@H](CC(C)C)C(=O)N[C@@H](CCSC)C(=O)N[C@@H](CC(N)=O)C(=O)N[C@H](C(=O)N[C@@H](CCCCN)C(=O)N[C@@H](CCC(N)=O)C(=O)O)[C@@H](C)O)C(C)C)C(=O)O [OXM414] (H-H[dS]QGTFTSDK([γGlu-Palmitoyl])SKYLDERRAQDFVQWLMNTKQ-OH; N-terminus and C-terminus assumed)

Row | Molecule | pI
6 | CSCC[C@H](NC(=O)[C@H](CC(C)C)NC(=O)[C@H](Cc1c[nH]c2ccccc12)NC(=O)[C@H](CCC(N)=O)NC(=O)[C@@H](NC(=O)[C@H](Cc1ccccc1)NC(=O)[C@H](CC(=O)O)NC(=O)[C@@H]1CCCCNC(=O)CC[C@H](NC(=O)[C@H](CC(=O)O)NC(=O)[C@H](CC(C)C)NC(=O)[C@H](Cc2ccc(O)cc2)NC(=O)[C@H](CCCCN)NC(=O)[C@H](CO)NC(=O)[C@H](Cc2ccc(O)cc2)NC(=O)[C@H](CC(=O)O)NC(=O)[C@H](CO)NC(=O)[C@@H](NC(=O)[C@H](Cc2ccccc2)NC(=O)[C@@H](NC(=O)CNC(=O)[C@H](CCC(N)=O)NC(=O)[C@@H](CO)NC(=O)[C@@H](N)Cc2c[nH]cn2)[C@@H](C)O)[C@@H](C)O)C(=O)N[C@@H](CCCNC(=N)N)C(=O)N[C@@H](CCCNC(=N)N)C(=O)N[C@@H](C)C(=O)N1)C(C)C)C(=O)N[C@@H](CC(N)=O)C(=O)N[C@H](C(=O)N[C@@H](CCCCN)C(=O)N[C@@H](CCC(=O)N[C@@H](CCC(=O)N[C@@H](CSCC(=O)NCCOCCOCCOCCOCCOCCOCCOCCOCCOCCOCCOCCOCCC(=O)O[C@H]1CC[C@@]2(C)C(=CCC3C2CC[C@@]2(C)C3CC[C@@H]2C(C)CCCC(C)C)C1)C(=O)O)C(=O)O)C(=O)O)[C@@H](C)O (stereo partly drawn) [OXM392] (H-H[dS]QGTFTSDYSKYLDERRAKDFVQWLMNTK[γGlu][γGlu]C(X1)-OH; lactam 16-20) | 5.4
